The results in this text go back to paper PMC6934184, “Selective DNA-PKcs inhibition extends the therapeutic index of localized radiotherapy and chemotherapy” (The Journal of Clinical Investigation, 2019).

The experiment addresses T1, RPS6KA2 (RSK3) (Homo sapiens, UniProt Q15349).
T1 construct: purchased Thermo Fisher Scientific (Life Technologies) SelectScreen
The experiment in a line: SelectScreen Z'LYTE. Type of experiment: biochemical. Put shortly:
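Percent values come from Thermo SelectScreen profiling of NU5455, combining activity and binding assays. CSF1R was run in Z'LYTE format at Km app ATP, and CAMK1 in Adapta format with ATP listed at 10.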

T1 sequence (Q15349 whole entry): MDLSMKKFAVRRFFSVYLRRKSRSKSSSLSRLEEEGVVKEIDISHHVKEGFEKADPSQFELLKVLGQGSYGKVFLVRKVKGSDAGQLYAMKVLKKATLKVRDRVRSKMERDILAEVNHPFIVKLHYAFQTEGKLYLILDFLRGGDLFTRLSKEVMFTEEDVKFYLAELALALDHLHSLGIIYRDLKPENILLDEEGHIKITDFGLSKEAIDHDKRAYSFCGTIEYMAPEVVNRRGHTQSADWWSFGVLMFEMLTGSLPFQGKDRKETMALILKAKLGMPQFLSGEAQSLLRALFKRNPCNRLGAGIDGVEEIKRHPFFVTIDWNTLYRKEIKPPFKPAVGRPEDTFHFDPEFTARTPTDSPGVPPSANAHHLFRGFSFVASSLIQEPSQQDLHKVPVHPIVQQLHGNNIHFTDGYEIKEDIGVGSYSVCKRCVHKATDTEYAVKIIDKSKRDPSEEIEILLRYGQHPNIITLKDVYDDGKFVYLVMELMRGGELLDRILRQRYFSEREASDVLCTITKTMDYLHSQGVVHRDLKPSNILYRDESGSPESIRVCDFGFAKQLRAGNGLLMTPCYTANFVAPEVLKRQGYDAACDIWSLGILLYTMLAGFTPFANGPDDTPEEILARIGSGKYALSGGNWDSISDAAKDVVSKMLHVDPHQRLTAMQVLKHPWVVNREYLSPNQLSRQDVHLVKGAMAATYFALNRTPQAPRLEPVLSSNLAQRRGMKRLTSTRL

Consider `CN(C(=O)CN1CCOCC1)c1ccc2sc3c(-c4cccc5c(=O)cc(N6CC7CCC(C6)O7)oc45)cccc3c2c1` [NU5455], for which 1 µM produced 10.8% inhibition.
